pIC50: −log10 of the molar value.
Target: T1, recombinant human PLK1[2-369]T210D (Homo sapiens, UniProt P53350, T210D)
T1 construct: recombinant human PLK1[2-369]T210D; Smt (SUMO) fusion partner (N, cleaved yes); host or cells: E. coli
Test: PLK1 DELFIA Kinase Assay
Assay type: biochemical
Conditions: 50 μM ATP, 2 μM peptide substrate, 0.3 nM enzyme, 90 minutes at room temperature
Method: Recombinant human PLK1 was expressed in E. coli as an N-terminal Smt fusion protein using a proprietary vector (pSGX4) by Structural Genomics (SGX). The fusion partner was removed through cleavage with Ulp1 after an initial purification using a Ni2+ affinity column.
PLK1 DELFIA® Kinase Assay
The enzymatic reaction mixture, with or without PLK inhibitors, was incubated 90 minutes at room temperature before termination with 50 μL of STOP buffer containing 1% BSA, 0.05% Tween20, 100 mM EDTA. 50 μL of the stopped enzyme reaction mixture was transferred to a Neutravidin-coated 384-well plate (Pierce) and incubated at room temperature for 60 minutes. […] The wells were washed and then the bound europium was liberated using 50 μL of Enhancement Solution (Perkin Elmer). Quantification of europium was done using a Pherastar (BMG Labtech)

T1 sequence (P53350 2-369 T210D): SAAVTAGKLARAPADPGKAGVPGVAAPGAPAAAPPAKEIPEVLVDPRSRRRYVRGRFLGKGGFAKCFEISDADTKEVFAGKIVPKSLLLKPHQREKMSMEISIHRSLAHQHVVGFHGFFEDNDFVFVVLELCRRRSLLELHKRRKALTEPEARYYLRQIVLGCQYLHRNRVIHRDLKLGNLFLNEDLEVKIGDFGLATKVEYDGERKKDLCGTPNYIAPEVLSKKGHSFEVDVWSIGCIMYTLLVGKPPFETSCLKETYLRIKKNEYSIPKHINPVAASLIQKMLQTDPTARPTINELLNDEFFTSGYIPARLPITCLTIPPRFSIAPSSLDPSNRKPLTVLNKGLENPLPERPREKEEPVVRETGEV

Structure (SMILES) | pIC50
Cc1nc(OC2CCN(C)CC2)ccc1Nc1ncc2c(n1)-c1ccc(Cl)cc1NC(=S)C2 [Compound I-56, 9-chloro-2-({2-methyl-6-[(1-methylpiperidin-4-yl)oxy]pyridin-3-yl}amino)-5,7-dihydro-6H-pyrimido[5,4-d][1]benzazepine-6-thione] | 7.60 to 8.30
Cc1nc(NC(C)C)ccc1Nc1ncc2c(n1)-c1ccc(C(F)(F)F)cc1NC(=S)C2 [Compound I-57, 2-{[6-(isopropylamino)-2-methylpyridin-3-yl]amino}-9-(trifluoromethyl)-5,7-dihydro-6H-pyrimido[5,4-d][1]benzazepine-6-thione] | > 8.30
CN1CCN(c2ccc(Nc3ncc4c(n3)-c3ccc(C(F)(F)F)cc3NC(=S)C4)cn2)CC1 [Compound I-61, 2-{[6-(4-methylpiperazin-1-yl)pyridin-3-yl]amino}-9-(trifluoromethyl)-5,7-dihydro-6H-pyrimido[5,4-d][1]benzazepine-6-thione] | > 8.30
Cc1ncc(C2CCN(C)CC2(C)C)cc1Nc1ncc2c(n1)-c1ccc(Cl)cc1NC(=S)C2 (stereo not shown) [Compound I-63, 9-chloro-2-{[2-methyl-5-(1,3,3-trimethylpiperidin-4-yl)pyridin-3-yl]amino}-5,7-dihydro-6H-pyrimido[5,4-d][1]benzazepine-6-thione] | > 8.30
Cc1nc(NCCN(C)C)ccc1Nc1ncc2c(n1)-c1ccc(C(F)(F)F)cc1NC(=S)C2 [Compound I-64, 2-[(6-{[2-(dimethylamino)ethyl]amino}-2-methylpyridin-3-yl)amino]-9-(trifluoromethyl)-5,7-dihydro-6H-pyrimido[5,4-d][1]benzazepine-6-thione] | > 8.30
CCN1CCN(c2cnc(C)c(Nc3ncc4c(n3)-c3ccc(Cl)cc3NC(=S)C4)c2)C[C@@H]1C [Compound I-66, 9-chloro-2-({5-[(3S)-4-ethyl-3-methylpiperazin-1-yl]-2-methylpyridin-3-yl}amino)-5,7-dihydro-6H-pyrimido[5,4-d][1]benzazepine-6-thione] | > 8.30
Cc1nc(NC2CCNCC2)ccc1Nc1ncc2c(n1)-c1ccc(C(F)(F)F)cc1NC(=S)C2 [Compound I-67, 2-{[2-methyl-6-(piperidin-4-ylamino)pyridin-3-yl]amino}-9-(trifluoromethyl)-5,7-dihydro-6H-pyrimido[5,4-d][1]benzazepine-6-thione] | > 8.30

Continued, values first:

pIC50 | Structure (SMILES)
> 8.30 | Cc1ncc(CCCO)cc1Nc1ncc2c(n1)-c1ccc(C(F)(F)F)cc1NC(=S)C2 [Compound I-55, 2-{[5-(3-hydroxypropyl)-2-methylpyridin-3-yl]amino}-9-(trifluoromethyl)-5,7-dihydro-6H-pyrimido[5,4-d][1]benzazepine-6-thione]
> 8.30 | CCN1CCN(c2cncc(Nc3ncc4c(n3)-c3ccc(Cl)cc3NC(=S)C4)c2)C[C@H]1C [Compound I-58, 9-chloro-2-({5-[(3R)-4-ethyl-3-methylpiperazin-1-yl]pyridin-3-yl}amino)-5,7-dihydro-6H-pyrimido[5,4-d][1]benzazepine-6-thione]
> 8.30 | Cc1ncc(CCN2CCC(N(C)C)CC2)cc1Nc1ncc2c(n1)-c1ccc(Cl)cc1NC(=S)C2 [Compound I-59, 9-chloro-2-[(5-{2-[4-(dimethylamino)piperidin-1-yl]ethyl}-2-methylpyridin-3-yl)amino]-5,7-dihydro-6H-pyrimido[5,4-d][1]benzazepine-6-thione]
> 8.30 | Cc1ccc2c(c1)NC(=S)Cc1cnc(Nc3cc(CCCN(C)C)cnc3C)nc1-2 [Compound I-60, 2-({5-[3-(dimethylamino)propyl]-2-methylpyridin-3-yl}amino)-9-methyl-5,7-dihydro-6H-pyrimido[5,4-d][1]benzazepine-6-thione]
> 8.30 | CNCCCc1cnc(C)c(Nc2ncc3c(n2)-c2ccc(C(F)(F)F)cc2NC(=S)C3)c1 [Compound I-62, 2-({2-methyl-5-[3-(methylamino)propyl]pyridin-3-yl}amino)-9-(trifluoromethyl)-5,7-dihydro-6H-pyrimido[5,4-d][1]benzazepine-6-thione]
> 8.30 | Cc1nc(NCC2CCN(C)CC2)ccc1Nc1ncc2c(n1)-c1ccc(C(F)(F)F)cc1NC(=S)C2 [Compound I-65]
